Here are results for two compounds from the NIST ThermoML archive (doi:10.1016/j.fluid.2018.05.008).

Data set [1] in a line: xn = mol fraction of the nth substance listed. The note with it: 100 kPa, Liquid, Vibrating tube method, x2 = 0.333.
The conditions of data set [2]: 100 kPa, Liquid, Vibrating tube method.

Numbers after ± are expanded uncertainties.

The mass density is the mass of a sample divided by its volume. As for `NC(N)=O` [urea] + C[N+](C)(C)CCO.[Cl-], the mass density was 1199.7 ± 1.1 kg/m3 in data set [1] (293.15 K); 1194.2 ± 1.1 kg/m3 in data set [1] (303.15 K); 1188.6 ± 1.1 kg/m3 in data set [1] (313.15 K); 1183.2 ± 1.1 kg/m3 in data set [1] (323.15 K); 1178 ± 1.1 kg/m3 in data set [1] (333.15 K).

Regarding `CCO` [ethanol], the mass density in data set [2] (293.15 K) amounted to 790.6 ± 1 kg/m3; in data set [2] (303.15 K), 781.9 ± 1 kg/m3; in data set [2] (313.15 K) it was 773.3 ± 1 kg/m3; in data set [2] (323.15 K) it was 764.4 ± 1 kg/m3; in data set [2] (333.15 K), 755.1 ± 1 kg/m3.
